According to US8778982B2, “Synergistic microbicidal compositions” (Rohm and Haas Company, priority 2007, dated 2014):

Assays:
Format in all cases: cell-based
Conditions in all cases: for SI / Qa: A = MIT; for Qa: A alone where Qb = 0
[1] = tested on: Aspergillus niger (A. niger—ATCC 16404); experiment: Synergy test, microtiter plate high resolution MIC assay, PDB medium, mold
Source text: (§1) One measure of synergism is the industrially accepted method described by Kull, F. C.; Eisman, P. C.; Sylwestrowicz, H. D. and Mayer, R. L., in Applied Microbiology 9:538-541 (1961), using the ratio determined by the formula: Qa/QA+Qb/QB=Synergy Index(“SI”) wherein: • QA=concentration of compound A (first component) in ppm, acting alone, which produced an end point (MIC of Compound A). • Qa=concentration of compound A in ppm, in the mixture, which produced an end point. • QB=concentration of compound B (second component) in ppm, acting alone, which produced an end point (MIC of Compound B). • Qb=concentration of compound B in ppm, in the mixture, which produced an end point.
(§2) When the sum of Qa/QA and Qb/QB is greater than one, antagonism is indicated. […] The lower the SI, the greater is the synergy shown by that particular mixture. The minimum inhibitory concentration (MIC) of a microbicide is the lowest concentration tested under a specific set of conditions that prevents the growth of the tested microorganisms.
(§3) Synergy tests were conducted using standard microtiter plate assays with media designed for optimal growth of the test microorganism. Minimal salt medium supplemented with 0.2% glucose and 0.1% yeast extract (M9GY medium) was used for testing bacteria; Potato Dextrose Broth (PDB medium) was used for testing yeast and mold. In this method, a wide range of combinations of microbicides and other personal care raw materials was tested by conducting high resolution MIC assays in the presence of various concentrations of CMIT/MIT, MIT, or BIT. High resolution MICs were determined by adding varying amounts of microbicide to one column of a microtitre plate and doing subsequent […] dilutions using an automated liquid handling system to obtain a series of endpoints ranging from 2 ppm to 10,000 ppm active ingredient.
(§4) The synergy of the combinations of the present invention was determined against a bacterium, Escherichia coli (E. coli—ATCC #8739), a yeast, Candida albicans (C. albicans—ATCC 10231), and a mold, Aspergillus niger (A. niger—ATCC 16404). The bacteria were used at a concentration of about 5×10^6 bacteria per mL and the yeast and mold at 5×10^5 fungi per mL. These microorganisms are representative of natural contaminants in many consumer and industrial applications. […] (yeast and mold) or 30° C. (bacteria).

[2] = tested on: Candida albicans (C. albicans—ATCC 10231); experiment: Synergy test, microtiter plate high resolution MIC assay, PDB medium, yeast
Source text: as §1, §2, §3, §4

[3] = tested on: Escherichia coli (E. coli—ATCC #8739); experiment: Synergy test, microtiter plate high resolution MIC assay, M9GY medium, bacterium
Source text: as §1, §2, §3, §4

[4] = A. niger 16404 - PDB (3 days), B = Myristamidopropyl PG-dimonium chloride phosphate
[5] = A. niger 16404 - PDB (3 days), B = Propylene glycol caprylate
[6] = A. niger 16404 - PDB (10 days), B = Ethylhexylglycerin
[7] = A. niger 16404 - PDB (10 days), B = Glyceryl caprate
[8] = A. niger 16404 - PDB (10 days), B = Glyceryl mono dicaprylate
[9] = A. niger 16404 - PDB (10 days), B = Lauric arginate
[10] = A. niger 16404 - PDB (10 days), B = Propylene glycol monolaurate
[11] = C. albicans 10231 - PDB (1 day), B = Propylene glycol monolaurate
[12] = C. albicans 10231 - PDB (2 days), B = Glyceryl mono dicaprylate
[13] = C. albicans 10231 - PDB (6 days), B = Ethylhexylglycerin
[14] = C. albicans 10231 - PDB (6 days), B = Glyceryl caprate
[15] = C. albicans 10231 - PDB (6 days), B = Lauric arginate
[16] = C. albicans 10231 - PDB (6 days), B = Myristamidopropyl PG-dimonium chloride phosphate
[17] = C. albicans 10231 - PDB (6 days), B = Propylene glycol caprylate
[18] = E. coli 8739 - M9GY (1 day), B = Glyceryl caprate
[19] = E. coli 8739 - M9GY (1 day), B = Glyceryl mono dicaprylate
[20] = E. coli 8739 - M9GY (1 day), B = Lauric arginate
[21] = E. coli 8739 - M9GY (1 day), B = Myristamidopropyl PG-dimonium chloride phosphate
[22] = E. coli 8739 - M9GY (1 day), B = Propylene glycol caprylate
[23] = E. coli 8739 - M9GY (1 day), B = Propylene glycol monolaurate
[24] = E. coli 8739 - M9GY (6 days), B = Ethylhexylglycerin

In the case of `Cn1sccc1=O` [MIT, 2-methyl-4-isothiazolin-3-one], the “Synergy Index (SI) = Qa/QA+Qb/QB” value ([1]; A. niger 16404, PDB, 10 days) is reported as 1.00, the “MIC of the component acting alone (QA or QB)” value (shortened to “MIC … (QA or QB)”) ([1]; A. niger 16404, PDB, 10 days, 25° C.) is reported as 500.00 ppm and the SI [1, 4] is reported as 1.00. For the same molecule, the Qa [1, 4] was 400 ppm, the SI [1, 5] was 1.00 and the Qa [1, 5] was 400 ppm. For the same molecule, the SI [1, 6] was 1.00, the Qa [1, 6] was 750 ppm and the SI [1, 7] was 1.00. The Qa [1, 7] was 500 ppm, the SI [1, 8] was 1.00 and the Qa [1, 8] was 500 ppm. The SI [1, 9] was 1.00, the Qa [1, 9] was 750 ppm and the SI [1, 10] was 1.00. The Qa [1, 10] was 750.00 ppm, the MIC ([1]; Aspergillus niger, ATCC16404, 240 h, read-out: MIC of the component acting alone (QA or QB)) was 500 µg/mL and the “Synergy Index (SI) = Qa/QA+Qb/QB” value ([2]; C. albicans 10231, PDB, 6 days) was 1.00. For the same molecule, the “MIC … (QA or QB)” value ([2]; C. albicans 10231, PDB, 6 days, 25° C.) was 200.00 ppm, the SI [2, 11] was 1.00 and the Qa [2, 11] was 100.00 ppm. For the same molecule, the SI [2, 12] was 1.00, the Qa [2, 12] was 150.00 ppm and the SI [2, 13] was 1.00. It also gave a Qa [2, 13] of 200.00 ppm, an SI [2, 14] of 1.00 and a Qa [2, 14] of 200.00 ppm. For the same molecule, the SI [2, 15] was 1.00, the Qa [2, 15] was 200.00 ppm and the SI [2, 16] was 1.00. The Qa [2, 16] was 200.00 ppm, the SI [2, 17] was 1.00 and the Qa [2, 17] was 200.00 ppm. The MIC ([2]; Candida albicans, ATCC10231, 144 h, read-out: MIC of the component acting alone (QA or QB)) was 200 µg/mL, the “Synergy Index (SI) = Qa/QA+Qb/QB” value ([3]; E. coli 8739, M9GY, 1 day) was 1.00 and the “MIC … (QA or QB)” value ([3]; E. coli 8739, M9GY, 1 day, 30° C.) was 30.00 ppm. It also gave an SI [3, 18] of 1.00, a Qa [3, 18] of 30.00 ppm and an SI [3, 19] of 1.00. It also gave a Qa [3, 19] of 30.00 ppm, an SI [3, 20] of 1.00 and a Qa [3, 20] of 30.00 ppm. It also gave an SI [3, 21] of 1.00, a Qa [3, 21] of 30.00 ppm and an SI [3, 22] of 1.00. The Qa [3, 22] was 30.00 ppm, the SI [3, 23] was 1.00 and the Qa [3, 23] was 30.00 ppm. The SI [3, 24] was 1.00, the Qa [3, 24] was 40.00 ppm and the MIC ([3]; Escherichia coli, ATCC8739, 24 h, read-out: MIC of the component acting alone (QA or QB)) was 30 µg/mL.
